One compound from US20230233584A1, “EXTENDED RELEASE 5-HT RECEPTOR AGONISTS FOR NEUROLOGICAL CONDITIONS” (Diamond Therapeutics Inc., priority 2020, published 2023) can be followed below.

This experiment has as its system Long Evans rats. Description: Progressive ratio (PR) test, Study B. The format is in vivo. Conditions: 0.025 mg/kg, rats. How it is done:
General: Experiments were conducted to test psilocybin doses in the range of 0.01-0.2 mg/kg psilocybin administered S.C. across progressive ratio (PR) and 5-choice serial reaction time task (5CSRTT) to examine the effect of psilocybin on endophenotypes of motivation and attention. In each study, a population of out-bred Long Evans rats was first tested as a group for response to the PR and 5CSRTT. Each group was then divided into subgroups by tertiles according to performance, and then exposed to various dose levels immediately prior to re-testing at various psilocybin dose levels.
The PR test is used to answer how willing the test subject is to work for food (i.e. test of motivation). A single 45 mg food pellet (i.e. reinforcer) is made available to the test animal based on lever press response. To obtain each successive pellet, the animal must make increasingly more lever presses. Typically, a progression of 2, 4, 6, 9, 12, 15, 20, 25, 32, 40, 50, 62, 77, 95, 118, etc. is used, derived from the equation:
ratio=[5×e^(0.2×reinforcer #)−5]
At some point, the animal gives up as the motor demands to obtain a single pellet are not deemed worthwhile (i.e. animal reaches “break point” defined as animal's failure to earn a food pellet in 20 minutes).
Study B: Based on Study 1 outcome, a follow-up PR study was conducted utilizing a larger cohort size (72 rats total), and incorporating a lower dose of psilocybin (0.025 mg/kg SC) (FIG. 2C and FIG. 2D). […] Separation of rats based on the lowest average break point recorded over the 7 days prior to testing identified a “low responder” subgroup of N=24 rats. […] There was no treatment effect on session duration (F3,69=2.4; P=0.07, NS), although there was trend for this to be increased at the 0.1 mg/kg dose (Veh: 15.1+2.0 min; Psilo 0.1 mg/kg: 18.7+2.5 min).

For the compound `CCN(CC)C(=O)[C@@H]1C=C2c3cccc4[nH]cc(c34)C[C@H]2N(C)C1` [LSD, D-lysergic acid diethylamide], the “effect in PR test at lowest dose tested” value was “no significant effect”.
